{"source": "paper PMC8011784", "about": "“Chronic peptide-based GIP receptor inhibition exhibits modest glucose metabolic changes in mice when administered either alone or combined with GLP-1 agonism” (PLoS ONE, 2021)", "key": {"GIP receptor": {"system": "GIP receptor", "conditions": "humans, co-infusion with GIP(3-30)NH2; cited from earlier work", "excerpt": "(§1) It has been shown that rat and the human GIP(3-30)NH2 are effective antagonists in vivo [48, 49], so we would expect the mouse GIP(3-30)NH2 to behave in a similar manner. […] In humans GIP-induced insulin secretion was reduced by 82% during co-infusion with GIP(3-30)NH2 [48]."}, "[1]": {"conditions": "cited from earlier work", "excerpt": "Given the strong in vitro pharmacological data and our interest in other metabolic parameters such as adiposity and insulin se ..."}, "mouse GIP receptor": {"target": "T1, mouse GIP receptor (Mus musculus, UniProt Q0P543)", "T1 construct": "host or cells: CHO-K1 (cAMP Hunter CHO-K1 GIPR Gs cell line)", "T1 sequence (Q0P543 19-460)": "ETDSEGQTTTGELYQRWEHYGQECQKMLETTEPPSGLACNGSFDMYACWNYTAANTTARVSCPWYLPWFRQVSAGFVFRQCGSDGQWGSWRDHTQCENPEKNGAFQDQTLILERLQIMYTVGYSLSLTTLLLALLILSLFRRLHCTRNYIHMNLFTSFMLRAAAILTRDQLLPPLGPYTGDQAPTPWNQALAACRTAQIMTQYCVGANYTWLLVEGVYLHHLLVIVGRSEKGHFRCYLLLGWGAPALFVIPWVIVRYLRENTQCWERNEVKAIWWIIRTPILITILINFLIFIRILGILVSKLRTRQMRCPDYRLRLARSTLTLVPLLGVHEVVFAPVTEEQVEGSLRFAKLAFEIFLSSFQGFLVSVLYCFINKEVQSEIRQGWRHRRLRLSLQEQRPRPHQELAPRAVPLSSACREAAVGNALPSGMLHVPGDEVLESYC", "assay": "Antagonist mode cAMP assay: inhibition of mouse GIP-induced cAMP production in CHO-K1 GIPR Gs cells", "assay_type": "cell-based", "conditions": "curve fit value in plot, unit from legend, read-out: IC50 (printed on plot, Fig 1A/1B)", "protocol": "Each peptide was tested for its ability to activate or inhibit the mouse GIP receptor using the cAMP Hunter™ CHO-K1 GIPR Gs cell line, in combination with the Hit Hunter® cAMP XP+ assay for determining cAMP, according to the manufacturer’s instructions (Eurofins DiscoverX Corporation).\nFig 1 Effects of acute GIPR antagonism on glucose homeostasis and insulin secretion. GIPA-1 and GIPA-2 are antagonists of mouse GIPR. […] IC50 values (μM) are indicated on the plots. (C-J) Acute effects of GIPA-1 and GIPA-2 on glucose homeostasis and insulin secretion in lean mice. Oral glucose tolerance tests (C and E), the corresponding areas under the curve (AUC) (D and F) and insulin responses (I) following subcutaneous injections of vehicle, 1,5 and 10 mg/kg GIPA-1 (C and D) or vehicle, 1,5 and 10 mg/kg GIPA-2 (E and F) before an oral glucose administration (1.5 g/kg). […] Statistical analysis was calculated using two-way ANOVA with Tukey’s post-hoc test (C, E, G and J) and one-way ANOVA with Dunnett’s post-hoc test (D, F, H, I). *: p< 0.05, **: p < 0.01, ***: p < 0.001, ****: p<0.0001 compared to vehicle.\nWe began by characterising the receptor-interaction properties of GIPA-1 and GIPA-2. Their agonist and antagonist potencies were measured via a cAMP production assay in CHO-K1 cells overexpressing the mouse GIPR."}, "[2]": {"system": "lean male C57BL/6JRj mice", "assay": "Acute intraperitoneal glucose tolerance test (IPGTT) with GIPA-2 and mouse GIP in lean mice", "assay_type": "in vivo", "conditions": "n = 8; for plasma insulin: 0.1 mg/kg mouse GIP SC", "protocol": "The effects of GIPA-2 and mouse GIP alone or in combination were studied in 10-week old lean male C57BL/6JRj mice. Animals were fasted 4 hours prior to an intraperitoneal glucose bolus (1.5 g/kg). Sixty minutes prior to glucose load animals received subcutaneous injection of 5mg/kg GIPA-2, while animals receiving mouse GIP (0.1 mg/kg) were dosed subcutaneously 15 minutes prior to glucose load. Blood glucose was measured just before the administration of GIPA-2 and at 0, 15, 30 60, 120, 180 and 240 min. Plasma insulin was measured at 0, 15 and 240 min.\nFig 1 Effects of acute GIPR antagonism on glucose homeostasis and insulin secretion. GIPA-1 and GIPA-2 are antagonists of mouse GIPR. […] IC50 values (μM) are indicated on the plots. (C-J) Acute effects of GIPA-1 and GIPA-2 on glucose homeostasis and insulin secretion in lean mice. Oral glucose tolerance tests (C and E), the corresponding areas under the curve (AUC) (D and F) and insulin responses (I) following subcutaneous injections of vehicle, 1,5 and 10 mg/kg GIPA-1 (C and D) or vehicle, 1,5 and 10 mg/kg GIPA-2 (E and F) before an oral glucose administration (1.5 g/kg). (G, H and J) Acute effect of GIPA-2 alone or in combination with mouse GIP on glucose homeostasis and insulin secretion in lean mice. Intraperitoneal glucose tolerance test cute IPGTT (G), the corresponding AUC (H) and insulin response (J) following subcutaneous injections of vehicle, 0.1 mg/kg mouse GIP, 5mg/kg GIPA-2, and combination of both. Group sizes are n = 8, and data are represented as mean ± SEM. Statistical analysis was calculated using two-way ANOVA with Tukey’s post-hoc test (C, E, G and J) and one-way ANOVA with Dunnett’s post-hoc test (D, F, H, I). *: p< 0.05, **: p < 0.01, ***: p < 0.001, ****: p<0.0001 compared to vehicle."}, "GIPR": {"system": "GIPR", "conditions": "cited from earlier work", "excerpt": "Further controversy is evident with peptide based GIPR antagonists. […] In contrast, a palmitoyl variant of Pro^3GIP(3–30) ... || The GLP-1-agonist-GIPR-antagonist combination therapy reported in the present study was born from evidence of compromised gut-hormone function in obesity and diabetes as well as their postulated role in driving the beneficial metabolic effects following bariatric surgery. Indeed, GLP-1 secretion is enhanced after bariatric surgery which is thought to be a key component for the resolution of diabetes. In contrast, the controversial role of the GIP signalling pathway in dysmetabolic states has led to the pursuit of both agonist and antagonist approaches. There is a compelling ..."}, "rats": {"system": "rats", "conditions": "25 nmol/kg b.w. for 3 weeks, cited from earlier work", "excerpt": "as §1, with “Further controversy is evident with peptide based GIPR antagonists. […] In contrast, a palmitoyl variant of Pro^3GIP(3–30) ... || It” for “It”"}}, "note": "Starred links: 1 amine or outer side, 2 acyl side, 3 side chain; linkers in the order of their positions; H or OH if unused. Residues, ends and D or L forms follow the SMILES beside them. Groups on a side chain read outwards from the residue. No end group written: not given here. *: point of attachment. γGlu = O=C(O)[C@H](CCC(=O)[*:2])N[*:1]; Palmitoyl = CCCCCCCCCCCCCCCC(=O)*"}
{"molecule": "human GIP(3-30)NH2: the human peptide sequence of GIP(3-30)NH2 (EGTFISDYSIAMDKIHQQDFVNWLLAQK-NH2; UniProt P09681 54-81, looked up, fragment)", "values": [{"measurement": "reduction of GIP-induced insulin secretion", "setting": "GIP receptor", "value": 82, "unit": "%"}, {"measurement": "plasma elimination half-life", "setting": "[1]; human peptide sequence, in humans", "value": "7.7 ± 1.4", "unit": "min"}]}
{"molecule": "CCCCCCCCCCCCCCCC(=O)N[C@@H](CCC(=O)N[C@@H](CCC(=O)NCCCC[C@H](NC(=O)[C@H](CC(=O)O)NC(=O)[C@H](CO)NC(=O)[C@@H](NC(=O)[C@H](Cc1ccccc1)NC(=O)[C@@H](NC(C)=O)[C@@H](C)O)[C@@H](C)CC)C(=O)N[C@@H](CO)C(=O)N[C@H](C(=O)N[C@@H](C)C(=O)N[C@@H](CCSC)C(=O)N[C@@H](CC(=O)O)C(=O)N[C@@H](CCCCN)C(=O)N[C@H](C(=O)N[C@@H](CCCNC(=N)N)C(=O)N[C@@H](CCC(N)=O)C(=O)N[C@@H](CCC(N)=O)C(=O)N[C@@H](CC(=O)O)C(=O)N[C@@H](Cc1ccccc1)C(=O)N[C@H](C(=O)N[C@@H](CC(N)=O)C(=O)N[C@@H](Cc1c[nH]c2ccccc12)C(=O)N[C@@H](CC(C)C)C(=O)N[C@@H](CC(C)C)C(=O)N[C@@H](C)C(=O)N[C@@H](CCC(N)=O)C(=O)N[C@@H](CCCCN)C(=O)NCC(=O)N[C@@H](CCCCN)C(=O)N[C@@H](CCCCN)C(=O)N[C@@H](CC(N)=O)C(=O)N[C@@H](CC(=O)O)C(=O)N[C@@H](Cc1c[nH]c2ccccc12)C(=O)N[C@@H](CCCCN)C(=O)N[C@@H](Cc1c[nH]cn1)C(=O)N[C@@H](CC(N)=O)C(=O)N[C@H](C(=O)N[C@H](C(=O)N[C@@H](CCC(N)=O)C(=O)O)[C@@H](C)O)[C@@H](C)CC)C(C)C)[C@@H](C)CC)[C@@H](C)CC)C(=O)O)C(=O)O", "note": "[GIPA-2, N^αAc-K10[γEγE-C16]-Arg18-hGIP(5–42)] (Ac-TFISDK([γGlu-γGlu-Palmitoyl])SIAMDKIRQQDFVNWLLAQKGKKNDWKHNITQ-OH)", "values": [{"measurement": "IC50", "setting": "mouse GIP receptor", "value": 2.97, "unit": "nM"}, {"measurement": "plasma half-life and in vivo duration of action", "setting": "[1]", "value": "extended plasma half-life"}]}
{"molecule": "mouse GIP: Mouse GIP was sourced from Phoenix Pharmaceuticals (YAEGTFISDYSIAMDKIRQQDFVNWLLAQRGKKSDWKHNITQ; Gastric inhibitory polypeptide; UniProt P48756 44-85, looked up)", "values": [{"measurement": "glucose tolerance (IPGTT)", "setting": "[2]; 5 mg/kg GIPA-2 SC 60 min and/or 0.1 mg/kg mouse GIP SC 15 min before ip glucose 1.5 g/kg", "value": "significantly improved glucose tolerance"}, {"measurement": "plasma insulin", "setting": "[2]; 15 and 240 min timepoints", "value": "This effect was not observed"}, {"measurement": "plasma insulin", "setting": "[2]; 15 minutes after mouse GIP, just prior to glucose bolus (0 min), 5 mg/kg GIPA-2 SC", "value": "robust increase in plasma insulin"}]}
{"molecule": "GIP(3–30)NH2: N-terminally truncated form of GIP, potent peptide-based antagonist; species not stated (EGTFISDYSIAMDKIHQQDFVNWLLAQK-NH2; UniProt P09681 54-81, looked up, fragment)", "values": [{"measurement": "GIPR antagonist potency", "setting": "GIPR", "value": "potent peptide-based antagonist"}]}
{"molecule": "CC[C@H](C)[C@H](NC(=O)[C@H](CO)NC(=O)[C@H](Cc1ccc(O)cc1)NC(=O)[C@H](CC(=O)O)NC(=O)[C@H](CO)NC(=O)[C@@H](NC(=O)[C@H](Cc1ccccc1)NC(=O)[C@@H](NC(=O)CNC(=O)[C@@H](N)CCC(=O)O)[C@@H](C)O)[C@@H](C)CC)C(=O)N[C@@H](C)C(=O)N[C@@H](CCSC)C(=O)N[C@@H](CC(=O)O)C(=O)N[C@@H](CCCCN)C(=O)N[C@H](C(=O)N[C@@H](CCCNC(=N)N)C(=O)N[C@@H](CCC(N)=O)C(=O)N[C@@H](CCC(N)=O)C(=O)N[C@@H](CC(=O)O)C(=O)N[C@@H](Cc1ccccc1)C(=O)N[C@H](C(=O)N[C@@H](CC(N)=O)C(=O)N[C@@H](Cc1c[nH]c2ccccc12)C(=O)N[C@@H](CC(C)C)C(=O)N[C@@H](CC(C)C)C(=O)N[C@@H](C)C(=O)N[C@@H](CCC(N)=O)C(=O)N[C@@H](CCCNC(=N)N)C(N)=O)C(C)C)[C@@H](C)CC", "note": "[GIPA-1, mouse GIP(3–30)NH2]", "values": [{"measurement": "IC50", "setting": "mouse GIP receptor", "value": 483, "unit": "nM"}]}
{"molecule": "rat GIP(3–30)NH2: GIPR antagonist, rat GIP(3–30)NH2", "values": [{"measurement": "body weight, fat mass, triglycerides, LPL, leptin", "setting": "rats; sub-chronic dosing, rats fed normal chow", "value": "significantly increased body weight, body fat mass, triglycerides, LPL, and leptin levels"}, {"measurement": "food intake or bone resorption", "setting": "rats; subchronic treatment", "value": "did not modify food intake or bone resorption"}]}
{"molecule": "(Pro3)-GIP: GIPR antagonist subsequently found to also possess partial agonist properties (YAPGTFISDYSIAMDKIHQQDFVNWLLAQKGKKNDWKHNITQ; Gastric inhibitory polypeptide; UniProt P09681 52-93, looked up, variant E3P)", "values": [{"measurement": "GIPR agonist/antagonist character", "setting": "GIPR", "value": "originally characterized as an antagonist but was subsequently found to also possess partial agonist properties"}]}
